Data: patent publication US20210198277A1, “AMINE-SUBSTITUTED ARYL OR HETEROARYL COMPOUNDS” (Epizyme, Inc., priority 2016, published 2021)

Key:
human EHMT2 913-1193 = molecular target: T1, human EHMT2 913-1193 (Homo sapiens, UniProt Q96KQ7); assay: EHMT2 enzyme assay on histone peptide substrate (EHMT2 PEP); type: biochemical; settings: Table VI; read-out: EHMT2 PEP IC50
T1 construct: recombinant purified human EHMT2 913-1193, Viva; purchased Viva
T1 sequence (Q96KQ7 913-1193): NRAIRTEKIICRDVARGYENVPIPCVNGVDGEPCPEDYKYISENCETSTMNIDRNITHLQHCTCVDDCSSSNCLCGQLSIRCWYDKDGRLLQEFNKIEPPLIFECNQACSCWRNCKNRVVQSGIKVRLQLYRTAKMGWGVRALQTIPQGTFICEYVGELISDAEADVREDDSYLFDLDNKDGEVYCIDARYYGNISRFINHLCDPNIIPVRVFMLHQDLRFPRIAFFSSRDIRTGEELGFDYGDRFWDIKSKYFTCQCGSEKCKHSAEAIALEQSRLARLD
In short: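 Radiometric methyltransferase read-out: ^3H-methyl transfer from ^3H-SAM onto biotinylated histone peptide, captured on streptavidin Flashplates after 60 min reaction at room temperature. Enzyme 0.031 nM, preincubated 30 min with inhibitor; buffer 20 mM Bicine pH 7.5 with 1 mM TCEP; top compound concentration 50 μM final, 2% DMSO.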

EHMT1 = molecular target: T2, EHMT1 (Homo sapiens, UniProt Q9H9B1); assay: EHMT1 enzyme assay on peptide substrate (EHMT1 PEP); type: biochemical; settings: Table VI; read-out: EHMT1 PEP IC50
T2 sequence (Q9H9B1 1-1298): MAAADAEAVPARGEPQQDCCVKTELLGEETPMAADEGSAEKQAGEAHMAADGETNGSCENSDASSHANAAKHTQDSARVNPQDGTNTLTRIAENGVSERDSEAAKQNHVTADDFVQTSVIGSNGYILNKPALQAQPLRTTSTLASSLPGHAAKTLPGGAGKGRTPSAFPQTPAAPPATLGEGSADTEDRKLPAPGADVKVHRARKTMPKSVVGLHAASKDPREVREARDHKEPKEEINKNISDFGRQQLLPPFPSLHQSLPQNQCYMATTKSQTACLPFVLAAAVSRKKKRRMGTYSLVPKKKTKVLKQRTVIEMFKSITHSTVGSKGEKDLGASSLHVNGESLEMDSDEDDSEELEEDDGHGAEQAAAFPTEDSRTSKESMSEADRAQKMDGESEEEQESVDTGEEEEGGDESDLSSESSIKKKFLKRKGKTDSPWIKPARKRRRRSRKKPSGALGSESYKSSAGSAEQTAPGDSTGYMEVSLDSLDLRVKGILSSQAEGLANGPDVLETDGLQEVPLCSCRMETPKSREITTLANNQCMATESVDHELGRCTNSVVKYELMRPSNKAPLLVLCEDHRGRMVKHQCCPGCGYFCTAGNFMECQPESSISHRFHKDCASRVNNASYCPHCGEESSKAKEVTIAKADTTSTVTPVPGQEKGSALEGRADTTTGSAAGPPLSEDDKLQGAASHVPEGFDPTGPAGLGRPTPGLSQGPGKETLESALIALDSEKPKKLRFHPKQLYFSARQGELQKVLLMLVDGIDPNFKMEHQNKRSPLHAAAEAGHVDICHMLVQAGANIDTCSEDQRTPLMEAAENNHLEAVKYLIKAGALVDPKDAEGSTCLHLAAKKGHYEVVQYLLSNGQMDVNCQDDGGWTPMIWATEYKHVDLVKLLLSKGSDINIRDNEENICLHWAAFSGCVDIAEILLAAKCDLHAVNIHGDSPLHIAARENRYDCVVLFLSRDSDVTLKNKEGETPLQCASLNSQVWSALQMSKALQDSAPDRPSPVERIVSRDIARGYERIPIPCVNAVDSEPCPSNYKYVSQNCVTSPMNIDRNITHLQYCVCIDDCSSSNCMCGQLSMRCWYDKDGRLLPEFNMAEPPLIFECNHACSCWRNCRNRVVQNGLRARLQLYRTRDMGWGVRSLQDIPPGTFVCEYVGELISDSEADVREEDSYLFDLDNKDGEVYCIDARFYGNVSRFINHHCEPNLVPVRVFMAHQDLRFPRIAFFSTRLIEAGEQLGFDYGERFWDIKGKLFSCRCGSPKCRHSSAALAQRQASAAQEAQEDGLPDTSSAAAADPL

SMILES	IC50 (human EHMT2 913-1193) [nM]	IC50 (EHMT1) [nM]
COc1cc(NC2CCNCC2)ncc1OCC1CCN(C)C1 (stereo not shown) [Compound 604]	100 to 1000	100 to 1000
COc1nc(NC2CCNCC2)ncc1OCC1CCN(C)C1 (stereo not shown) [Compound 605]	> 10000	> 10000
CCN1CC(COc2cc(Nc3nc(C)cc4[nH]ncc34)ncc2OC)C1 [Compound 607]	100 to 1000	< 100
CNc1cc(C)nc(Nc2cc(OCCCN3CCCC3)n3cnnc3c2)n1 [Compound 628]	> 10000	> 10000
COc1cc(NC2CCNCC2)ncc1OCC1CCNC1 (stereo not shown) [Compound 629]	100 to 1000	< 100
CCc1nc(NC2CCNCC2)ncc1OCC1CCN(C)C1 (stereo not shown) [Compound 630]	> 10000	> 10000
CCc1nc(NC2CCNCC2)ncc1OCC1CN(C(C)C)C1 [Compound 631]	> 10000	> 10000
CN1CCC(Nc2ncc(OCC3CCN(C)C3)cn2)CC1 (stereo not shown) [Compound 632]	> 10000	> 10000
CN1CCC(COc2cnc(N(C)C3CCNCC3)nc2)C1 (stereo not shown) [Compound 633]	> 10000	> 10000
COc1cc(N(C)C2CCNCC2)ncc1OCC1CCN(C)C1 (stereo not shown) [Compound 634]	100 to 1000	100 to 1000
COc1cc(N(C)C2CCNCC2)ncc1OCC1CCN(C)C1 (stereo not shown) [Compound 635]	1000 to 10000	1000 to 10000
CC(C)N1CC(COc2cnc(NC3CCNCC3)nc2)C1 [Compound 636]	> 10000	> 10000
CC(C)N1CC[C@@H](COc2cnc(N(C)C3CCNCC3)nc2)C1 [Compound 637]	> 10000	> 10000
COc1cnc(Nc2cccn3cncc23)cc1OCCCN1CCCC1 [Compound 638]	> 10000	> 10000
COc1cnc(NC(=O)/C=C/CN(C)C)cc1OCCCN1CCCC1 [Compound 640]	> 10000	> 10000
CNc1cc(C)nc(Nc2cnc(OC)c(OC[C@@H]3CCNC3)c2)n1 [Compound 641]	< 100	< 100
COc1cc(Nc2ccc3[nH]ncc3c2)ncc1OCCCN1CCCC1 [Compound 643]	> 10000	> 10000
CNc1cc(C)nc(Nc2ccc(OC)c(CNCCN3CCCC3)c2)n1 [Compound 644, 2-N-[4-methoxy-3-([[2-(pyrrolidin-1-yl)ethyl]amino]methyl)phenyl]-4-N,6-dimethylpyrimidine-2,4-diamine]	< 100	< 100
CNc1cc(C)nc(Nc2ccc(OC)c(CN(C)CCN3CCCC3)c2)n1 [Compound 645]	> 10000	1000 to 10000
CCN1CCC(NCc2cc(Nc3nc(C)cc(NC)n3)ccc2OC)C1 (stereo not shown) [Compound 646]	1000 to 10000	1000 to 10000
CCN1CC(NCc2cc(Nc3nc(C)cc(NC)n3)ccc2OC)C1 [Compound 647]	> 10000	1000 to 10000
COc1cc(Nc2ccc3[nH]ncc3n2)ncc1OCCCN1CCCC1 [Compound 648]	1000 to 10000	1000 to 10000
CCN1CC([C@H](C)Oc2cc(Nc3nc(C)cc(NC)n3)ccc2OC)C1 [Compound 649]	100 to 1000	100 to 1000
CCN1CC(N(C)Cc2cc(Nc3nc(C)cc(NC)n3)ccc2OC)C1 [Compound 650]	> 10000	> 10000
CCN1CCC(N(C)Cc2cc(Nc3nc(C)cc(NC)n3)ccc2OC)C1 (stereo not shown) [Compound 651]	> 10000	1000 to 10000
COc1cc2c(C3CCN(C)CC3)c(F)c(C)nc2cc1OCCCN1CCCC1 [Compound 652]	100 to 1000	< 100
COc1cnc(Nc2cccc3nccn23)nc1OCCCN1CCCC1 [Compound 654]	> 10000	> 10000

SMILES	IC50 (human EHMT2 913-1193) [nM]	IC50 (EHMT1) [nM]
COc1cnc(Nc2cccc3[nH]ncc23)nc1OCCCN1CCCC1 [Compound 655]	> 10000	> 10000
COc1cnc(Nc2cccc3nncn23)nc1OCCCN1CCCC1 [Compound 656]	> 10000	> 10000
COc1cc2c(C3CCN(C)CC3)nc(C)nc2cc1OCCCN1CCCC1 [Compound 658]	100 to 1000	100 to 1000
COc1cc2c(C3CCN(C(C)C)CC3)nc(C)nc2cc1OCCCN1CCCC1 [Compound 659]	100 to 1000	100 to 1000
CCN1CC(COc2cc3nc(C)cc(C4CCN(C)CC4)c3cc2OC)C1 [Compound 660]	< 100	< 100
CCN1CC(COc2cc3nc(C)cc(C4CCN(C(C)C)CC4)c3cc2OC)C1 [Compound 661]	< 100	< 100
CCN1CC[C@@H](COc2cc3nc(C)cc(C4CCN(C)CC4)c3cc2OC)C1 [Compound 662]	< 100	< 100
CCN1CC[C@@H](COc2cc3nc(C)cc(C4CCN(C(C)C)CC4)c3cc2OC)C1 [Compound 663]	< 100	< 100
CCN1CC(COc2cc3nc(C)nc(C4CCN(C)CC4)c3cc2OC)C1 [Compound 664]	1000 to 10000	1000 to 10000
CCN1CC(COc2cc3nc(C)nc(C4CCN(C(C)C)CC4)c3cc2OC)C1 [Compound 665]	1000 to 10000	1000 to 10000
CCN1CC[C@@H](COc2cc(Nc3nc(C)cc(NCC4CCOCC4)n3)ccc2OC)C1 [Compound 667]	100 to 1000	< 100
COc1cc2c(C3CCOCC3)cc(C)nc2cc1OCCCN1CCCC1 [Compound 668]	100 to 1000	100 to 1000
COc1cc2c(C3CCN(C(C)C)CC3)cc(C)nc2nc1OCCCN1CCCC1 [Compound 670]	100 to 1000	100 to 1000
CCc1cc(NC)nc(Nc2ccc(OC)c(OC[C@@H]3CCN(CC)C3)c2)n1 [Compound 671]	100 to 1000	< 100
CCN1CC[C@@H](COc2cc(Nc3nc(NC)cc(C(C)C)n3)ccc2OC)C1 [Compound 672]	< 100	< 100
CCN1CC[C@@H](COc2cc3nc(C)nc(C4CCN(C)CC4)c3cc2OC)C1 [Compound 673]	100 to 1000	100 to 1000
CCN1CC[C@@H](COc2cc3nc(C)nc(C4CCN(C(C)C)CC4)c3cc2OC)C1 [Compound 674]	1000 to 10000	1000 to 10000
CNc1cc(C)nc(Nc2cnc(OC)c(O)c2)n1 [Compound 676]	> 10000	> 10000
COc1cc2c(C3CCN(C)CC3)cc(-c3cn[nH]c3)nc2cc1OCCCN1CCCC1 [Compound 677]	< 100	< 100
COc1cc2c(C3CCN(C)CC3)cc(-c3cc[nH]n3)nc2cc1OCCCN1CCCC1 [Compound 678]	100 to 1000	100 to 1000
COc1cc2c(C3CCOCC3)cc(-c3cn[nH]c3)nc2cc1OCCCN1CCCC1 [Compound 679]	1000 to 10000	1000 to 10000
CNCCN(C)Cc1cc(Nc2nc(C)cc(NC)n2)ccc1OC [Compound 680]	1000 to 10000	1000 to 10000
COc1cc2c(C3CCN(C)CC3)nc(-c3cn[nH]c3)nc2cc1OCCCN1CCCC1 [Compound 681]	1000 to 10000	100 to 1000
COCCN1CCC(c2cc(C)nc3cc(OCCCN4CCCC4)c(OC)cc23)CC1 [Compound 682]	< 100	< 100
COc1cnc(Nc2ccc3[nH]nnc3c2)cc1OCCCN1CCCC1 [Compound 686]	> 10000	> 10000
CCN1CC([C@@H](C)Oc2cc(Nc3nc(C)cc(NC)n3)ccc2OC)C1 [Compound 687]	1000 to 10000	1000 to 10000
